{"source": "ChEMBL document CHEMBL1212738", "about": "“Phenotypic and genotypic characterization of Enterobacteriaceae with decreased susceptibility to carbapenems: results from large hospital-based surveillance studies in China” (2010)", "key": {"[1]": {"system": "Klebsiella pneumoniae", "test": "Antimicrobial activity against Klebsiella pneumoniae ZJ68T expressing CTX-M-15 by CLSI method", "type": "functional"}, "[2]": {"system": "Klebsiella pneumoniae", "test": "Antimicrobial activity against carbapenem-resistant Klebsiella pneumoniae GZ83 deficient in SHV-11, CTX-M-14, ompK35/36 by CLSI method", "type": "functional"}, "[3]": {"system": "Klebsiella pneumoniae", "test": "Antimicrobial activity against carbapenem-resistant Klebsiella pneumoniae PU104 deficient in TEM-1, SHV-11, CTX-M-15, qnrS1, ompK35/36 by CLSI method", "type": "functional"}, "[4]": {"system": "Escherichia coli", "test": "Antimicrobial activity against carbapenem-resistant Escherichia coli PU101 deficient in TEM-1, CTX-M-14, CMY-2, ompC by CLSI method", "type": "functional"}, "[5]": {"system": "Escherichia coli", "test": "Antimicrobial activity against Escherichia coli PU102T expressing TEM-1, CTX-M-14, CMY-2 by CLSI method", "type": "functional"}, "[6]": {"system": "Enterobacter cloacae", "test": "Antimicrobial activity against carbapenem-resistant Enterobacter cloacae GX24 deficient in TEM-1, DHA-1, aac(6')-Ib, ompC by CLSI method", "type": "functional"}, "[7]": {"system": "Klebsiella aerogenes", "test": "Antimicrobial activity against carbapenem-resistant Enterobacter aerogenes PU41 deficient in CTX-M-14, DHA-1, qnrS1, ompC DEc, ompF by CLSI method", "type": "functional"}, "[8]": {"system": "Klebsiella aerogenes", "test": "Antimicrobial activity against Enterobacter aerogenes PU41T expressing CTX-M-14, DHA-1, qnrS1 by CLSI method", "type": "functional"}, "[9]": {"system": "Escherichia coli", "test": "Antimicrobial activity against carbapenem-resistant Escherichia coli HX74 deficient in TEM-1, CTX-M-14, CTX-M-3, aac(6')-Ibcr, ompC/F by CLSI method", "type": "functional"}, "[10]": {"system": "Escherichia coli", "test": "Antimicrobial activity against Escherichia coli HX74T expressing CTX-M-3 by CLSI method", "type": "functional"}, "[11]": {"system": "Enterobacter cloacae", "test": "Antimicrobial activity against carbapenem-resistant Enterobacter cloacae GX56 deficient in ompC and expressing low levels of ompF DE by CLSI method", "type": "functional"}, "[12]": {"system": "Klebsiella aerogenes", "test": "Antimicrobial activity against carbapenem-resistant Enterobacter aerogenes WH85 deficient in TEM-1, CTX-M-3, ompC/F by CLSI method", "type": "functional"}, "[13]": {"system": "Enterobacter cloacae", "test": "Antimicrobial activity against carbapenem-resistant Enterobacter cloacae NJ89 deficient in CTX-M-14, ompC/F by CLSI method", "type": "functional"}, "[14]": {"system": "Citrobacter freundii", "test": "Antimicrobial activity against Citrobacter freundii RJ78 expressing CMY-2, qnrA1, aac(6')-Ib-cr, ompC by CLSI method", "type": "functional"}, "[15]": {"system": "Klebsiella pneumoniae", "test": "Antimicrobial activity against carbapenem-resistant Klebsiella pneumoniae ZJ18 deficient in KPC-2, SHV-28, DHA-1, ompK35 by CLSI method", "type": "functional"}, "[16]": {"system": "Klebsiella pneumoniae", "test": "Antimicrobial activity against Klebsiella pneumoniae ZJ18T expressing KPC-2, DHA-1 by CLSI method", "type": "functional"}, "[17]": {"system": "Klebsiella pneumoniae", "test": "Antimicrobial activity against Klebsiella pneumoniae ZJ70T expressing KPC-2 by CLSI method", "type": "functional"}, "[18]": {"system": "Klebsiella pneumoniae", "test": "Antimicrobial activity against carbapenem-resistant Klebsiella pneumoniae ZJ71 deficient in KPC-2, TEM-1, SHV-11, CTX-M-14, ompK35 by CLSI method", "type": "functional"}, "[19]": {"system": "Klebsiella pneumoniae", "test": "Antimicrobial activity against Klebsiella pneumoniae ZJ71T expressing KPC-2 by CLSI method", "type": "functional"}, "[20]": {"system": "Klebsiella pneumoniae", "test": "Antimicrobial activity against Klebsiella pneumoniae ZJ99 expressing KPC-2, CTX-M-3, qnrS1, ompK35 DE by CLSI method", "type": "functional"}, "[21]": {"system": "Escherichia coli", "test": "Antimicrobial activity against Escherichia coli ZJ86T expressing KPC-2 by CLSI method", "type": "functional"}, "[22]": {"system": "Escherichia coli", "test": "Antimicrobial activity against Escherichia coli ZJ87 expressing KPC-2, TEM-1, ompC by CLSI method", "type": "functional"}, "[23]": {"system": "Klebsiella pneumoniae", "test": "Antimicrobial activity against carbapenem-resistant Klebsiella pneumoniae FZ47 deficient in IMP-8, TEM-1, SHV-11, CTX-M-14, qnrB2, aac(6')-Ib, ompK35/36 by CLSI method", "type": "functional"}, "[24]": {"system": "Klebsiella pneumoniae", "test": "Antimicrobial activity against carbapenem-resistant Klebsiella pneumoniae FZ49 deficient in IMP-8, TEM-1, SHV-11, CTX-M-14, qnrB2, aac(6')-Ib, ompK35/36 by CLSI method", "type": "functional"}, "[25]": {"system": "Klebsiella pneumoniae", "test": "Antimicrobial activity against Klebsiella pneumoniae GZ64T expressing IMP-4 by CLSI method", "type": "functional"}, "[26]": {"system": "Klebsiella pneumoniae", "test": "Antimicrobial activity against Klebsiella pneumoniae WH77 expressing IMP-4, TEM-1, SHV-14, CTX-M-3, qnrS1 by CLSI method", "type": "functional"}, "[27]": {"system": "Citrobacter freundii", "test": "Antimicrobial activity against Citrobacter freundii SZ62 expressing IMP-4, TEM-1, CMY-2, qnrS1, aac(6')-Ib-cr by CLSI method", "type": "functional"}, "[28]": {"system": "Enterobacter cloacae", "test": "Antimicrobial activity against carbapenem-resistant Enterobacter cloacae SZ92 deficient in IMP-4, TEM-1, CTX-M-14, DHA-1, qnrB10/B4-like, aac(6')-Ib, ompC by CLSI method", "type": "functional"}, "[29]": {"system": "Enterobacter cloacae", "test": "Antimicrobial activity against carbapenem-resistant Enterobacter cloacae WH103 deficient in IMP-4, TEM-1, CTX-M-3, qnrS1, ompC by CLSI method", "type": "functional"}, "[30]": {"system": "Escherichia coli", "test": "Antimicrobial activity against Escherichia coli C600 by CLSI method", "type": "functional"}, "[31]": {"system": "Klebsiella pneumoniae", "test": "Antimicrobial activity against carbapenem-resistant Klebsiella pneumoniae CY1 deficient in SHV-11, DHA-1, ompK35/36 by CLSI method", "type": "functional"}, "[32]": {"system": "Klebsiella pneumoniae", "test": "Antimicrobial activity against carbapenem-resistant Klebsiella pneumoniae PU4 deficient in SHV-1, DHA-1, ompK35/36 by CLSI method", "type": "functional"}, "[33]": {"system": "Klebsiella pneumoniae", "test": "Antimicrobial activity against carbapenem-resistant Klebsiella pneumoniae PU5 deficient in SHV-12, DHA-1, aac(6')-Ib-cr, ompK35/36 by CLSI method", "type": "functional"}, "[34]": {"system": "Klebsiella pneumoniae", "test": "Antimicrobial activity against carbapenem-resistant Klebsiella pneumoniae PU8 deficient in SHV-11, DHA-1, aac(6')-Ib-cr, ompK35/36 by CLSI method", "type": "functional"}, "[35]": {"system": "Klebsiella pneumoniae", "test": "Antimicrobial activity against carbapenem-resistant Klebsiella pneumoniae PU105 deficient TEM-1, SHV-12, CTX-M-14, DHA-1, qnrB10/B4-like, aac(6')-Ib-cr, ompK35/36 by CLSI method", "type": "functional"}, "[36]": {"system": "Escherichia coli", "test": "Antimicrobial activity against Escherichia coli C600 transconjugant SZ62T expressing IMP-4, qnrS1by CLSI method"}, "[37]": {"system": "Escherichia coli", "test": "Antimicrobial activity against Escherichia coli C600 transconjugant GZ66T expressing SHV-11, DHA-1 by CLSI method"}, "[38]": {"system": "Klebsiella pneumoniae", "test": "Antimicrobial activity against carbapenem-resistant Klebsiella pneumoniae ZJ68 deficient in CTX-M-15, ompK35/36 by CLSI method"}, "[39]": {"system": "Escherichia coli", "test": "Antimicrobial activity against carbapenem-resistant Escherichia coli ZJ86 expressing KPC-2, TEM-1 with ompC loss by CLSI method"}, "[40]": {"system": "Escherichia coli", "test": "Antimicrobial activity against Escherichia coli C600 transconjugant WH77T expressing IMP-4, TEM-1, CTX-M-3, qnrS1 by CLSI method"}}}
{"smiles": "C[C@@H](O)[C@H]1C(=O)N2C(C(=O)O)=C(S[C@@H]3CN[C@H](C(=O)Nc4cccc(C(=O)O)c4)C3)[C@H](C)[C@H]12", "values": [{"measurement": "MIC", "setting": "[1]", "result": 0.064, "unit": "µg/mL"}, {"measurement": "MIC", "setting": "[2]", "result": 128, "unit": "µg/mL"}, {"measurement": "MIC", "setting": "[3]", "result": 64, "unit": "µg/mL"}, {"measurement": "MIC", "setting": "[4]", "result": 128, "unit": "µg/mL"}, {"measurement": "MIC", "setting": "[5]", "result": 0.25, "unit": "µg/mL"}, {"measurement": "MIC", "setting": "[6]", "result": 16, "unit": "µg/mL"}, {"measurement": "MIC", "setting": "[7]", "result": 64, "unit": "µg/mL"}, {"measurement": "MIC", "setting": "[8]", "result": 0.032, "unit": "µg/mL"}, {"measurement": "MIC", "setting": "[9]", "result": 16, "unit": "µg/mL"}, {"measurement": "MIC", "setting": "[10]", "result": 0.064, "unit": "µg/mL"}, {"measurement": "MIC", "setting": "[11]", "result": 32, "unit": "µg/mL"}, {"measurement": "MIC", "setting": "[12]", "result": 16, "unit": "µg/mL"}, {"measurement": "MIC", "setting": "[13]", "result": 128, "unit": "µg/mL"}, {"measurement": "MIC", "setting": "[14]", "result": 8, "unit": "µg/mL"}, {"measurement": "MIC", "setting": "[15]", "result": 16, "unit": "µg/mL"}, {"measurement": "MIC", "setting": "[16]", "result": 2, "unit": "µg/mL"}, {"measurement": "MIC", "setting": "[17]", "result": 16, "unit": "µg/mL"}, {"measurement": "MIC", "setting": "[18]", "result": 16, "unit": "µg/mL"}, {"measurement": "MIC", "setting": "[19]", "result": 4, "unit": "µg/mL"}, {"measurement": "MIC", "setting": "[20]", "result": 8, "unit": "µg/mL"}, {"measurement": "MIC", "setting": "[21]", "result": 16, "unit": "µg/mL"}, {"measurement": "MIC", "setting": "[22]", "result": 16, "unit": "µg/mL"}, {"measurement": "MIC", "setting": "[23]", "result": 8, "unit": "µg/mL"}, {"measurement": "MIC", "setting": "[24]", "result": 4, "unit": "µg/mL"}, {"measurement": "MIC", "setting": "[25]", "result": 4, "unit": "µg/mL"}, {"measurement": "MIC", "setting": "[26]", "result": 4, "unit": "µg/mL"}, {"measurement": "MIC", "setting": "[27]", "result": 4, "unit": "µg/mL"}, {"measurement": "MIC", "setting": "[28]", "result": 32, "unit": "µg/mL"}, {"measurement": "MIC", "setting": "[29]", "result": 32, "unit": "µg/mL"}, {"measurement": "MIC", "setting": "[30]", "result": 0.008, "unit": "µg/mL"}, {"measurement": "MIC", "setting": "[31]", "result": 32, "unit": "µg/mL"}, {"measurement": "MIC", "setting": "[32]", "result": 32, "unit": "µg/mL"}, {"measurement": "MIC", "setting": "[33]", "result": 64, "unit": "µg/mL"}, {"measurement": "MIC", "setting": "[34]", "result": 32, "unit": "µg/mL"}, {"measurement": "MIC", "setting": "[35]", "result": 128, "unit": "µg/mL"}, {"measurement": "MIC", "setting": "[36]", "result": 4, "unit": "µg/mL"}, {"measurement": "MIC", "setting": "[37]", "result": 0.008, "unit": "µg/mL"}, {"measurement": "MIC", "setting": "[38]", "result": 64, "unit": "µg/mL"}, {"measurement": "MIC", "setting": "[39]", "result": 32, "unit": "µg/mL"}, {"measurement": "MIC", "setting": "[40]", "result": 4, "unit": "µg/mL"}]}
